Reference: publication PMC5218480 (PLoS ONE, 2017)

Test system: MV-4-11 cells
Assay: Gene expression microarray analysis (Affymetrix PrimeView) and GSEA
Assay type: cell-based, human
Design: RFU PODN (11730768_x_at) / Fold change /veh PODN (11730768_x_at) / RFU LINC00158 (11744669_a_at) / Fold change /veh LINC00158 (11744669_a_at) / RFU DUSP10 (11751237_a_at) / Fold change /veh DUSP10 (11751237_a_at) / RFU ID3 (11757404_x_at) / Fold change /veh ID3 (11757404_x_at) / RFU PLEKHG5 (11737974_s_at) / Fold change /veh PLEKHG5 (11737974_s_at) / RFU LRRC4B (11730491_at) / Fold change /veh LRRC4B (11730491_at) / RFU GIMAP4 (11747438_a_at) / Fold change /veh GIMAP4 (11747438_a_at) / RFU KRT8 (11758183_x_at) / Fold change /veh KRT8 (11758183_x_at) / RFU CNN1 (11734310_a_at) / Fold change /veh CNN1 (11734310_a_at) / RFU VPS37D (11726825_at) / Fold change /veh VPS37D (11726825_at) / RFU C10orf10 (11716522_x_at) / Fold change /veh C10orf10 (11716522_x_at) / RFU KIR2DL2 /// KIR2DL4 /// KIR2DL5A /// KIR2DL5B /// KIR2DS1 /// KIR2DS2 /// KIR2DS3 /// KIR2DS4 /// KIR3DL3 /// KIR3DL3 /// KIR3DS1 (11738374_at) / Fold change /veh KIR2DL2 /// KIR2DL4 /// KIR2DL5A /// KIR2DL5B /// KIR2DS1 /// KIR2DS2 /// KIR2DS3 /// KIR2DS4 /// KIR3DL3 /// KIR3DL3 /// KIR3DS1 (11738374_at) / RFU C1QL1 (11718748_at) / Fold change /veh C1QL1 (11718748_at) / RFU TMPRSS4 (11747572_a_at) / Fold change /veh TMPRSS4 (11747572_a_at) / RFU HAMP (11756126_x_at) / Fold change /veh HAMP (11756126_x_at) / RFU RNFT2 (11725882_a_at) / Fold change /veh RNFT2 (11725882_a_at) / RFU NR4A2 (11747474_a_at) / Fold change /veh NR4A2 (11747474_a_at) / RFU ABCC12 (11746883_a_at) / Fold change /veh ABCC12 (11746883_a_at) / RFU TMEM136 (11760407_x_at) / Fold change /veh TMEM136 (11760407_x_at) / RFU CLDN22 /// WWC2 (11732394_at) / Fold change /veh CLDN22 /// WWC2 (11732394_at) / RFU HLA-DPB1 (11760878_x_at) / Fold change /veh HLA-DPB1 (11760878_x_at) / RFU SPINT1 (11716480_a_at) / Fold change /veh SPINT1 (11716480_a_at) / RFU GAP43 (11754022_s_at) / Fold change /veh GAP43 (11754022_s_at) / RFU A4GNT (11735810_at) / Fold change /veh A4GNT (11735810_at) / RFU PRB3 (11715151_x_at) / Fold change /veh PRB3 (11715151_x_at) / RFU TUBB4B (11761932_at) / Fold change /veh TUBB4B (11761932_at) / RFU CAPN14 (11732068_a_at) / Fold change /veh CAPN14 (11732068_a_at) / RFU TMCC2 (11721928_a_at) / Fold change /veh TMCC2 (11721928_a_at) / RFU IRGQ (11745062_a_at) / Fold change /veh IRGQ (11745062_a_at) / RFU FAM174B (11720279_a_at) / Fold change /veh FAM174B (11720279_a_at) / RFU TMPRSS4 (11748680_a_at) / Fold change /veh TMPRSS4 (11748680_a_at) / RFU FAM212B (11763350_a_at) / Fold change /veh FAM212B (11763350_a_at) / RFU PLEKHG5 (11743358_a_at) / Fold change /veh PLEKHG5 (11743358_a_at) / RFU ZSCAN30 (11745921_a_at) / Fold change /veh ZSCAN30 (11745921_a_at) / RFU CMKLR1 (11741424_a_at) / Fold change /veh CMKLR1 (11741424_a_at) / RFU LOC101060620 /// MAPK8IP1 (11723275_at) / Fold change /veh LOC101060620 /// MAPK8IP1 (11723275_at) / RFU SPTSSB (11747773_x_at) / Fold change /veh SPTSSB (11747773_x_at) / RFU PRSS12 (11739890_at) / Fold change /veh PRSS12 (11739890_at) / RFU BIN1 (11741810_x_at) / Fold change /veh BIN1 (11741810_x_at) / RFU WNT11 (11732464_a_at) / Fold change /veh WNT11 (11732464_a_at) / RFU C10orf10 (11716521_a_at) / Fold change /veh C10orf10 (11716521_a_at) / RFU C5orf56 (11738089_at) / Fold change /veh C5orf56 (11738089_at) / RFU CYB561 (11721691_x_at) / Fold change /veh CYB561 (11721691_x_at) / RFU ANKRD19P (11752326_a_at) / Fold change /veh ANKRD19P (11752326_a_at) / RFU OR2T12 /// OR2T33 /// OR2T8 (11738714_s_at) / Fold change /veh OR2T12 /// OR2T33 /// OR2T8 (11738714_s_at) / RFU VCAN (11748164_a_at) / Fold change /veh VCAN (11748164_a_at) / RFU JSRP1 (11732532_at) / Fold change /veh JSRP1 (11732532_at) / RFU KRTAP10-11 (11738290_x_at) / Fold change /veh KRTAP10-11 (11738290_x_at) / RFU MYO3A (11730013_a_at) / Fold change /veh MYO3A (11730013_a_at) / RFU EBF3 (11725865_a_at) / Fold change /veh EBF3 (11725865_a_at) / RFU CAMK2N1 (11719241_x_at) / Fold change /veh CAMK2N1 (11719241_x_at) / RFU C5orf56 (11738088_a_at) / Fold change /veh C5orf56 (11738088_a_at) / RFU OLFML3 (11715873_a_at) / Fold change /veh OLFML3 (11715873_a_at) / RFU LOC100653217 /// NTM (11731650_a_at) / Fold change /veh LOC100653217 /// NTM (11731650_a_at) / RFU MAPK11 (11762145_a_at) / Fold change /veh MAPK11 (11762145_a_at) / RFU FIZ1 (11724087_x_at) / Fold change /veh FIZ1 (11724087_x_at) / RFU OASL (11726364_x_at) / Fold change /veh OASL (11726364_x_at) / RFU SOX15 (11748057_x_at) / Fold change /veh SOX15 (11748057_x_at) / RFU CD79A (11719716_a_at) / Fold change /veh CD79A (11719716_a_at) / RFU HIST1H1D (11736915_at) / Fold change /veh HIST1H1D (11736915_at) / RFU CASKIN2 (11723855_a_at) / Fold change /veh CASKIN2 (11723855_a_at) / RFU LOC730098 (11760151_x_at) / Fold change /veh LOC730098 (11760151_x_at) / RFU OR4N2 (11742367_at) / Fold change /veh OR4N2 (11742367_at) / RFU PRRT2 (11749266_a_at) / Fold change /veh PRRT2 (11749266_a_at) / RFU SNX32 (11753110_a_at) / Fold change /veh SNX32 (11753110_a_at) / RFU CDHR5 (11726645_a_at) / Fold change /veh CDHR5 (11726645_a_at) / RFU RCAN1 (11760418_a_at) / Fold change /veh RCAN1 (11760418_a_at) / RFU FAM167A (11723789_a_at) / Fold change /veh FAM167A (11723789_a_at) / RFU FAM26E (11764081_at) / Fold change /veh FAM26E (11764081_at) / RFU ISYNA1 (11749810_s_at) / Fold change /veh ISYNA1 (11749810_s_at) / RFU ACY1 (11761880_at) / Fold change /veh ACY1 (11761880_at) / RFU 11764098_at / Fold change /veh 11764098_at / RFU SAMD14 (11745864_x_at) / Fold change /veh SAMD14 (11745864_x_at) / RFU NPB (11741838_a_at) / Fold change /veh NPB (11741838_a_at) / RFU TMPRSS6 (11731388_a_at) / Fold change /veh TMPRSS6 (11731388_a_at) / RFU KRTAP10-2 (11738614_at) / Fold change /veh KRTAP10-2 (11738614_at) / RFU ARHGAP8 /// PRR5-ARHGAP8 (11727945_x_at) / Fold change /veh ARHGAP8 /// PRR5-ARHGAP8 (11727945_x_at) / RFU KRTAP5-7 /// NADSYN1 (11734609_at) / Fold change /veh KRTAP5-7 /// NADSYN1 (11734609_at) / RFU RASL12 (11751679_a_at) / Fold change /veh RASL12 (11751679_a_at) / RFU CDKN2B (11736163_a_at) / Fold change /veh CDKN2B (11736163_a_at) / RFU PRF1 (11729649_at) / Fold change /veh PRF1 (11729649_at) / RFU, ZNF638 /// ZNF638-IT1 / Fold change vs veh, ZNF638 /// ZNF638-IT1 / RFU, PANK3 / Fold change vs veh, PANK3 / RFU, SH3YL1 / Fold change vs veh, SH3YL1 / RFU, ZEB2 / Fold change vs veh, ZEB2 / RFU, NRIP1 / Fold change vs veh, NRIP1 / RFU, PTTG1IP / Fold change vs veh, PTTG1IP / RFU, CAPN2 / Fold change vs veh, CAPN2 / RFU, MED14 / Fold change vs veh, MED14 / RFU, SNORA58 / Fold change vs veh, SNORA58 / RFU, C1orf63 / Fold change vs veh, C1orf63 / RFU, LRRFIP1 / Fold change vs veh, LRRFIP1 / RFU, NDUFAF7 / Fold change vs veh, NDUFAF7 / RFU, SLC12A2 / Fold change vs veh, SLC12A2 / RFU, IBTK / Fold change vs veh, IBTK / RFU, ESF1 / Fold change vs veh, ESF1 / Fold change vs veh, TMEM50B / RFU, TAOK1 / Fold change vs veh, TAOK1 / RFU, ACBD3 / Fold change vs veh, ACBD3 / RFU, TMA16 / Fold change vs veh, TMA16 / RFU, RWDD3 / Fold change vs veh, RWDD3 / RFU, BCAT1 / Fold change vs veh, BCAT1 / RFU, EDEM3 / Fold change vs veh, EDEM3 / RFU, TMEM33 / Fold change vs veh, TMEM33 / RFU, WDR75 / Fold change vs veh, WDR75 / RFU, AHCTF1 / Fold change vs veh, AHCTF1 / RFU, TFRC / Fold change vs veh, TFRC / RFU, ZDHHC17 / Fold change vs veh, ZDHHC17 / RFU, NOM1 / Fold change vs veh, NOM1 / RFU, ARL8B / Fold change vs veh, ARL8B / RFU, ZBTB11 / Fold change vs veh, ZBTB11 / RFU, TAMM41 / Fold change vs veh, TAMM41 / RFU, KIAA1704 /// LOC100996395 / Fold change vs veh, KIAA1704 /// LOC100996395 / RFU, ING1 / Fold change vs veh, ING1 / RFU, TRMT61B / Fold change vs veh, TRMT61B / RFU, FUBP3 / Fold change vs veh, FUBP3 / RFU, TP53 / Fold change vs veh, TP53 / RFU, TNKS2 / Fold change vs veh, TNKS2 / RFU, ZFP14 / Fold change vs veh, ZFP14 / RFU, ACTR2 / Fold change vs veh, ACTR2 / RFU, PPP3R1 / Fold change vs veh, PPP3R1 / RFU, PIK3R1 / Fold change vs veh, PIK3R1 / RFU, HNRNPA1 / Fold change vs veh, HNRNPA1 / RFU, RNF170 / Fold change vs veh, RNF170 / RFU, ZNF28 / Fold change vs veh, ZNF28 / RFU, RNGTT / Fold change vs veh, RNGTT / RFU, OGT / Fold change vs veh, OGT / RFU, BRD1 / Fold change vs veh, BRD1 / RFU, MARS / Fold change vs veh, MARS / RFU, ZNF655 / Fold change vs veh, ZNF655 / RFU, FAHD1 / Fold change vs veh, FAHD1 / RFU, BDP1 / Fold change vs veh, BDP1 / RFU, LRRCC1 / Fold change vs veh, LRRCC1 / RFU, ARID1A / Fold change vs veh, ARID1A / RFU, ZNF146 / Fold change vs veh, ZNF146 / RFU, ZNF330 / Fold change vs veh, ZNF330 / RFU, GPN3 / Fold change vs veh, GPN3 / RFU, C9orf123 / Fold change vs veh, C9orf123 / RFU, N4BP2L2 / Fold change vs veh, N4BP2L2 / RFU, ARFIP1 / Fold change vs veh, ARFIP1 / RFU, FAM179B / Fold change vs veh, FAM179B / RFU, BCL10 / Fold change vs veh, BCL10 / RFU, UHRF1BP1L / Fold change vs veh, UHRF1BP1L / RFU, BET1 / Fold change vs veh, BET1 / RFU, CNOT2 / Fold change vs veh, CNOT2 / RFU, ZNF268 / Fold change vs veh, ZNF268 / Fold change vs veh, ZNF507 / RFU, DGCR2 / Fold change vs veh, DGCR2 / RFU, WDSUB1 / Fold change vs veh, WDSUB1 / Fold change vs veh, HSP90B1 /// MIR3652 / RFU, ADSS / Fold change vs veh, ADSS / RFU, GK / Fold change vs veh, GK / RFU, ZNF148 / Fold change vs veh, ZNF148 / RFU, TAF9 / Fold change vs veh, TAF9 / RFU, SLC1A5 / Fold change vs veh, SLC1A5 / RFU, SLMO2 / Fold change vs veh, SLMO2 / RFU, ABCC4 / Fold change vs veh, ABCC4 / RFU, LOC101060439 /// RAP1B / Fold change vs veh, LOC101060439 /// RAP1B / RFU, RFX7 / Fold change vs veh, RFX7 / RFU, GTPBP10 / Fold change vs veh, GTPBP10 / RFU, CNEP1R1 / Fold change vs veh, CNEP1R1 / RFU, BIVM-ERCC5 /// ERCC5 / Fold change vs veh, BIVM-ERCC5 /// ERCC5 / RFU, ILF3 / Fold change vs veh, ILF3 / RFU 11762660_at / Fold change /veh 11762660_at / RFU VCAN (11757783_s_at) / Fold change /veh VCAN (11757783_s_at) / RFU DDX43 (11728927_at) / Fold change /veh DDX43 (11728927_at) / RFU KRT8 (11758188_x_at) / Fold change /veh KRT8 (11758188_x_at) / RFU NKD1 (11759106_at) / Fold change /veh NKD1 (11759106_at) / RFU SRD5A1 (11742802_a_at) / Fold change /veh SRD5A1 (11742802_a_at) / RFU TPSAB1 /// TPSB2 (11721975_s_at) / Fold change /veh TPSAB1 /// TPSB2 (11721975_s_at) / RFU GSTM3 (11746129_a_at) / Fold change /veh GSTM3 (11746129_a_at) / RFU IL23R (11737362_x_at) / Fold change /veh IL23R (11737362_x_at) / RFU TMEM51 (11727254_a_at) / Fold change /veh TMEM51 (11727254_a_at) / RFU PIWIL2 (11732686_x_at) / Fold change /veh PIWIL2 (11732686_x_at) / RFU ORM1 (11744905_x_at) / Fold change /veh ORM1 (11744905_x_at) / RFU CCDC152 (11743942_at) / Fold change /veh CCDC152 (11743942_at) / RFU ECM1 (11717891_a_at) / Fold change /veh ECM1 (11717891_a_at) / RFU IL23R (11748794_a_at) / Fold change /veh IL23R (11748794_a_at) / RFU TNFAIP8L3 (11732012_x_at) / Fold change /veh TNFAIP8L3 (11732012_x_at) / RFU MBOAT4 (11741988_at) / Fold change /veh MBOAT4 (11741988_at) / RFU 11764193_at / Fold change /veh 11764193_at / RFU TMEM53 (11763286_at) / Fold change /veh TMEM53 (11763286_at) / RFU MAGEB2 (11727129_at) / Fold change /veh MAGEB2 (11727129_at) / RFU TMEM200A (11744735_a_at) / Fold change /veh TMEM200A (11744735_a_at) / RFU CCDC152 (11751479_a_at) / Fold change /veh CCDC152 (11751479_a_at) / RFU FAM211A (11726209_a_at) / Fold change /veh FAM211A (11726209_a_at) / RFU RGS16 (11746705_a_at) / Fold change /veh RGS16 (11746705_a_at) / RFU VCAN (11755009_s_at) / Fold change /veh VCAN (11755009_s_at) / RFU RHOB (11743442_s_at) / Fold change /veh RHOB (11743442_s_at) / RFU RGS16 (11720943_a_at) / Fold change /veh RGS16 (11720943_a_at) / RFU RGS16 (11720944_at) / Fold change /veh RGS16 (11720944_at) / RFU, VPS4B / Fold change vs veh, VPS4B / RFU, CREB1 / Fold change vs veh, CREB1 / RFU, DNAJC13 / Fold change vs veh, DNAJC13 / RFU, GNAQ / Fold change vs veh, GNAQ / RFU, CDK5R1 / Fold change vs veh, CDK5R1 / RFU, ZRANB3 / Fold change vs veh, ZRANB3 / RFU, CUL4A / Fold change vs veh, CUL4A / RFU, CCNY / Fold change vs veh, CCNY / RFU, UFL1 / Fold change vs veh, UFL1 / RFU, COG3 / Fold change vs veh, COG3 / RFU, DIAPH2 / Fold change vs veh, DIAPH2 / RFU, SKA2 / Fold change vs veh, SKA2 / RFU, AFF3 / Fold change vs veh, AFF3 / RFU, LMF1 / Fold change vs veh, LMF1 / RFU, IPO11 / Fold change vs veh, IPO11 / RFU, DFFB / Fold change vs veh, DFFB / RFU, FOXP1 / Fold change vs veh, FOXP1 / RFU, CARD8 / Fold change vs veh, CARD8 / RFU, STRN3 / Fold change vs veh, STRN3 / RFU, ADK / Fold change vs veh, ADK / RFU, RASSF2 / Fold change vs veh, RASSF2 / RFU, WIPF1 / Fold change vs veh, WIPF1 / RFU, LARP1B / Fold change vs veh, LARP1B / RFU, RASA1 / Fold change vs veh, RASA1 / RFU, RB1 / Fold change vs veh, RB1 / RFU, PPFIA1 / Fold change vs veh, PPFIA1 / RFU, MAT2A / Fold change vs veh, MAT2A / RFU, CCT5 / Fold change vs veh, CCT5 / RFU, WDR92 / Fold change vs veh, WDR92 / RFU, CUX1 / Fold change vs veh, CUX1 / RFU, TTC7A / Fold change vs veh, TTC7A / RFU, TMEM135 / Fold change vs veh, TMEM135 / RFU, DEPTOR / Fold change vs veh, DEPTOR / RFU, CPM / Fold change vs veh, CPM / RFU, DNAJB6 / Fold change vs veh, DNAJB6 / RFU, CACNA2D3 / Fold change vs veh, CACNA2D3 / RFU, DTX4 / Fold change vs veh, DTX4 / RFU, TFCP2 / Fold change vs veh, TFCP2 / RFU, GMCL1 /// GMCL1P1 / Fold change vs veh, GMCL1 /// GMCL1P1 / RFU, AEBP2 / Fold change vs veh, AEBP2 / RFU, SNHG1 /// SNORD22 /// SNORD25 /// SNORD26 /// SNORD27 /// SNORD28 /// SNORD29 /// SNORD31 / Fold change vs veh, SNHG1 /// SNORD22 /// SNORD25 /// SNORD26 /// SNORD27 /// SNORD28 /// SNORD29 /// SNORD31 / Fold change (Aza/veh), C12orf56 (ProbeSet 11735607_a_at) / Fold change (ACY-1035/veh), C12orf56 (ProbeSet 11735607_a_at) / Fold change (Aza/veh), FGFR1OP (ProbeSet 11751329_s_at) / Fold change (ACY-1035/veh), FGFR1OP (ProbeSet 11751329_s_at) / Fold change (Aza/veh), VPS36 (ProbeSet 11739960_a_at) / Fold change (ACY-1035/veh), VPS36 (ProbeSet 11739960_a_at) / RFU SYPL1 (11715823_x_at) / Fold change /veh SYPL1 (11715823_x_at) / RFU IGFBP7 (11715501_s_at) / Fold change /veh IGFBP7 (11715501_s_at) / RFU REEP3 (11722064_at) / Fold change /veh REEP3 (11722064_at) / RFU IGLL1 (11728026_x_at) / Fold change /veh IGLL1 (11728026_x_at): dose or concentration left out as unconfirmed
Conditions: MV-4-11 cells, 48 hours

With `Nc1ncn([C@@H]2O[C@H](CO)[C@@H](O)[C@H]2O)c(=O)n1` [azacitidine] as the compound, how does the “RFU EBF3 (11725865_a_at)” value read?
Its value is 64.76 RFU.
